The results in this text go back to patent publication US20230150980A1, “COLLAGEN 1 TRANSLATION INHIBITORS AND METHODS OF USE THEREOF” (Anima Biotech Inc., priority 2020, published 2023).

Counter-ions that a name gives are not always drawn.

This assay relates to collagen 1. Nature of the assay: WI-38 collagen 1 inhibition assay (anti-Collagen I immunofluorescence).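 Further: minus sign means inactive.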 Type of assay: cell-based. The settings on record: cellular EC50, WI-38 human lung fibroblasts, values are LogEC50 classes. On the procedure:
WI-38 cells (ATCC® CCL-75™) were maintained in MEM EAGLE (NEAA) W. GLUTAMIN (Biological Industries, Cat. 06-1040-15-1A) containing 10% fetal bovine serum (FBS) and 1% Penicillin-Streptomycin Solution. To synchronize the cells (cell cycle synchronization) prior to induction of collagen synthesis, the cells were starved using DMEM-low glucose supplemented with 0.25% FBS for two hours and then without FBS for 24 hours. To induce collagen synthesis, the cells were treated with a collagen induction cocktail for the indicated time. Compounds were added with induction.
Cells in 96-well or 384-well plates were fixed for 20 min in 4% paraformaldehyde (PFA, ENCO, Cat. sc-281692). Following two washes with 1×PBS, cells were treated with hydrogen peroxide (Acros, Cat: 7722-84-1) for 10 minutes and then washed twice with 1×PBS. Cells were then incubated over-night at 4° C. with Anti-Collagen I (Sigma-Aldrich, Cat: C 2456) antibody and washed three times with 1×PBS. Cell were then incubated with a suitable secondary fluorescently-tagged antibody and nuclei stained with DAPI, for 1 hour, and then washed 3 times with 1×PBS.
Cell images were taken with Operetta (Perkin Elmer, USA), a wide-field fluorescence microscope at 20× magnification. After acquisition, the images were transferred to Columbus software (Perkin-Elmer) for image analysis. In Columbus, cells were identified by their nucleus, using the “Find Nuceli” module and cytoplasm was detected based on the secondary antibody channel. Subsequently, the fluorescent signal was enumerated in the identified cell region. Data was exported to a data analysis and visualization software, Tibco Spotfire, USA.
Regarding `CCc1cncnc1N1CCN(Cc2cc3ccc(OCCOC)cc3[nH]2)CC1` [compound 292, 2-((4-(5-ethylpyrimidin-4-yl)piperazin-1-yl)methyl)-6-(2-methoxyethoxy)-1H-indole], the “COL1 Efficacy (LogEC50)” value is listed as “++ (++: −5 to −6)”. Turning to `c1ccc2[nH]c(CN3CCN(c4cncnc4)CC3)cc2c1` [compound 278, 2-[(4-pyrimidin-5-ylpiperazin-1-yl)methyl]-1H-indole formate], the “COL1 Efficacy (LogEC50)” value is on record as “−”. As for `O=C(c1cccnc1)N1CCN(Cc2cc3ccccc3[nH]2)CC1` [Compound 231, [4-(1H-indol-2-ylmethyl)piperazin-1-yl]-(3-pyridyl)methanone], the “COL1 Efficacy (LogEC50)” value was “−”. With `Clc1cncnc1N1CCN(Cc2nc3ccccc3o2)CC1` [compound 314, 2-((4-(5-chloropyrimidin-4-yl)piperazin-1-yl)methyl)benzo[d]oxazole], the “COL1 Efficacy (LogEC50)” value is “++ (++: −5 to −6)”. As for `c1ccc2c(CN3CCN(c4ccncc4)CC3)c[nH]c2c1` [compound 277, 3-((4-(pyridin-4-yl)piperazin-1-yl)methyl)-1H-indole bis 2,2,2-trifluoroacetate], the entry is “−”; as for `Nc1ccc2[nH]c(CN3CCN(c4ccncc4)CC3)cc2c1` [compound 246, 2-[[4-(4-pyridyl)piperazin-1-yl]methyl]-1H-indol-5-amine], “++ (++: −5 to −6)”. Consider `Brc1ccc2cc(CN3CCN(c4ccncc4)CC3)[nH]c2c1` [compound 224, 6-bromo-2-[[4-(4-pyridyl)piperazin-1-yl]methyl]-1H-indole], for which the “COL1 Efficacy (LogEC50)” value is reported as “+ (+: >−5)”. With `Cc1ncnc(N2CCN(C3(c4nc5ccccc5o4)CC3)CC2)c1C` [compound 321, 2-(1-(4-(5,6-dimethylpyrimidin-4-yl)piperazin-1-yl)cyclopropyl)benzo[d]oxazole], the “COL1 Efficacy (LogEC50)” value was “++ (++: −5 to −6)”. With `OC1(c2ccncc2)CCN(Cc2cc3ccccc3[nH]2)CC1` [compound 267, 1-(1H-indol-2-ylmethyl)-4-(4-pyridyl)piperidin-4-ol], the “COL1 Efficacy (LogEC50)” value is listed as “−”. As for `c1cc(CN2CCN(c3ccncc3)CC2)c2cc[nH]c2c1` [compound 263, 4-[[4-(4-pyridyl)piperazin-1-yl]methyl]-1H-indole], the entry is “−”. Regarding `CC(C)CC(=O)N1CCN(Cc2cc3ccccc3[nH]2)CC1` [Compound 239, 1-[4-(1H-indol-2-ylmethyl)piperazin-1-yl]-3-methyl-butan-1-one], the “COL1 Efficacy (LogEC50)” value was “++ (++: −5 to −6)”.

On to `CCc1cncnc1N1CCN(Cc2nc3ccc(Cl)cc3[nH]2)CC1` [Compound 211, 6-chloro-2-((4-(5-ethylpyrimidin-4-yl)piperazin-1-yl)methyl)-1H-benzo[d]imidazole], for which the “COL1 Efficacy (LogEC50)” value is reported as “+++ (+++: <−6)”. For `Fc1cncnc1N1CCN(Cc2nc3ccccc3o2)CC1` [compound 313], the “COL1 Efficacy (LogEC50)” value was “+ (+: >−5)”. On to `COCCOc1ccc2c(c1)cc(CN1CCN(c3ccncc3)CC1)n2CCOC` [compound 261, 5-(2-methoxyethoxy)-1-(2-methoxyethyl)-2-((4-(pyridin-4-yl)piperazin-1-yl)methyl)-1H-indole], for which the “COL1 Efficacy (LogEC50)” value is recorded as “−”.

For `Cc1ncnc(N2CCN(Cc3nc4cccc(C(F)(F)F)c4o3)CC2)c1C` [compound 307, 2-((4-(5,6-dimethylpyrimidin-4-yl)piperazin-1-yl)methyl)-7-(trifluoromethyl)benzo[d]oxazole], the “COL1 Efficacy (LogEC50)” value was “++ (++: −5 to −6)”. For `Cc1ncnc(N2CCN(Cc3nc4cc(F)ccc4o3)CC2)c1C` [compound 297, 2-((4-(5,6-dimethylpyrimidin-4-yl)piperazin-1-yl)methyl)-5-fluorobenzo[d]oxazole], the “COL1 Efficacy (LogEC50)” value was “++ (++: −5 to −6)”. As for `Cc1ncnc(N2CCN(Cc3nc4ccccc4[nH]3)CC2)c1C` [compound 257, 2-[[4-(5,6-dimethylpyrimidin-4-yl)piperazin-1-yl]methyl]-1H-benzimidazole], the “COL1 Efficacy (LogEC50)” value is recorded as “++ (++: −5 to −6)”. With `c1cnc2cc(CN3CCN(c4ccncc4)CC3)[nH]c2c1` [compound 284, 2-[[4-(4-pyridyl)piperazin-1-yl]methyl]-1H-pyrrolo[3,2-b]pyridine], the “COL1 Efficacy (LogEC50)” value was “−”. For `c1ccc2[nH]c(CN3CCN(c4nccs4)CC3)cc2c1` [Compound 229, 2-[4-(1H-indol-2-ylmethyl)piperazin-1-yl]thiazole], the “COL1 Efficacy (LogEC50)” value was “++ (++: −5 to −6)”. With `c1ccc2[nH]c(CN3CCN(c4nccc5ccccc45)CC3)cc2c1` [compound 234], the “COL1 Efficacy (LogEC50)” value is “+ (+: >−5)”.

As for `Cc1ncnc(N2CCN(Cc3[nH]c4ccc(Cl)cc4c3C)CC2)c1C` [compound 204], the “COL1 Efficacy (LogEC50)” value is “++ (++: −5 to −6)”.

Turning to `c1ccc2oc(CN3CCN(c4c[nH]nn4)CC3)nc2c1` [compound 332], the “COL1 Efficacy (LogEC50)” value is listed as “−”.

As for `Cc1cncnc1N1CCN(Cc2cc3ccccc3[nH]2)CC1` [compound 266, 2-[[4-(5-methylpyrimidin-4-yl)piperazin-1-yl]methyl]-1H-indole formate], the “COL1 Efficacy (LogEC50)” value is on record as “+ (+: >−5)”. `CCc1cncnc1N1CCN(Cc2cc3ccc(COCCOC)cc3[nH]2)CC1` [compound 291, 2-((4-(5-ethylpyrimidin-4-yl)piperazin-1-yl)methyl)-6-((2-methoxyethoxy)methyl)-1H-indole]: the “COL1 Efficacy (LogEC50)” value was “+++ (+++: <−6)”. As for `Cc1cccnc1N1CCN(Cc2cc3ccccc3[nH]2)CC1` [Compound 238, 2-[[4-(3-methyl-2-pyridyl)piperazin-1-yl]methyl]-1H-indole], the entry is “++ (++: −5 to −6)”. For the molecule `FC(F)(F)c1cccnc1N1CCN(Cc2cc3ccccc3[nH]2)CC1` [Compound 225, 2-[[4-[3-(trifluoromethyl)-2-pyridyl]piperazin-1-yl]methyl]-1H-indole], the “COL1 Efficacy (LogEC50)” value is recorded as “+ (+: >−5)”. As for `Cn1cc(N2CCN(Cc3cc4ccccc4[nH]3)CC2)nn1` [compound 288, 2-((4-(1-methyl-1H-1,2,3-triazol-4-yl)piperazin-1-yl)methyl)-1H-indole], the “COL1 Efficacy (LogEC50)” value is reported as “++ (++: −5 to −6)”. `Cc1ncnc(N2CCN(Cc3nc4ccc(C(F)(F)F)cc4o3)CC2)c1C` [compound 303, 2-((4-(5,6-dimethylpyrimidin-4-yl)piperazin-1-yl)methyl)-6-(trifluoromethyl)benzo[d]oxazole]: the “COL1 Efficacy (LogEC50)” value is listed as “+++ (+++: <−6)”. `Clc1c(CN2CCN(c3ccncc3)CC2)[nH]c2ccccc12` [compound 248, 3-chloro-2-[[4-(4-pyridyl)piperazin-1-yl]methyl]-1H-indole]: the “COL1 Efficacy (LogEC50)” value is recorded as “+++ (+++: <−6)”.

With `CS(=O)(=O)Nc1ccc2[nH]c(CN3CCN(c4ccncc4)CC3)cc2c1` [compound 251, N-[2-[[4-(4-pyridyl)piperazin-1-yl]methyl]-1H-indol-5-yl]methanesulfonamide], the “COL1 Efficacy (LogEC50)” value is on record as “+ (+: >−5)”.

Regarding `CC(C)n1cc(N2CCN(Cc3nc4ccccc4o3)CC2)nn1` [compound 339], the “COL1 Efficacy (LogEC50)” value is reported as “−”. As for `FC(F)(F)c1ccc2nc(CN3CCN(c4ccncc4)CC3)[nH]c2c1` [Compound 209, 2-((4-(pyridin-4-yl)piperazin-1-yl)methyl)-6-(trifluoromethyl)-1H-benzo[d]imidazole], the entry is “+ (+: >−5)”; as for `c1ccc(-c2nc3c(c(N4CCN(Cc5cc6ccccc6[nH]5)CC4)n2)CCC3)cc1` [compound 207], “++ (++: −5 to −6)”; as for `COCCOc1ccc2[nH]c(CN3CCN(c4ccncc4)CC3)cc2c1` [compound 260, 5-(2-methoxyethoxy)-2-[[4-(4-pyridyl)piperazin-1-yl]methyl]-1H-indole], “++ (++: −5 to −6)”. For `c1ccc2[nH]c(CN3CCN(c4ccncc4)CC3)cc2c1` [Compound 212, 2-((4-(pyridin-4-yl)piperazin-1-yl)methyl)-1H-indole], the “COL1 Efficacy (LogEC50)” value is “+++ (+++: <−6)”. Take `Clc1ccc2[nH]c(CN3CCN(c4ccncc4)CC3)cc2c1` [compound 245, 5-chloro-2-[[4-(4-pyridyl)piperazin-1-yl]methyl]-1H-indole formate]: the “COL1 Efficacy (LogEC50)” value was “−”. As for `COCCOCc1cncnc1N1CCN(Cc2cc3ccccc3[nH]2)CC1` [compound 287, 2-((4-(5-((2-methoxyethoxy)methyl)pyrimidin-4-yl)piperazin-1-yl)methyl)-1H-indole], the “COL1 Efficacy (LogEC50)” value is listed as “−”.

As for `c1ccc2[nH]c(CN3CCCN(c4ccncc4)CC3)cc2c1` [compound 273, 2-[[4-(4-pyridyl)-1,4-diazepan-1-yl]methyl]-1H-indole], the “COL1 Efficacy (LogEC50)” value is “−”. Turning to `Cc1ncnc(N2CC3CC2CN3Cc2nc3ccc(F)cc3o2)c1C` (stereo not shown) [compound 334, 2-((5-(5,6-dimethylpyrimidin-4-yl)-2,5-diazabicyclo[2.2.1]heptan-2-yl)methyl)-6-fluorobenzo[d]oxazole], the “COL1 Efficacy (LogEC50)” value is recorded as “+++ (+++: <−6)”. Regarding `COc1ccc2[nH]c(CN3CCN(c4ccncc4)CC3)cc2c1` [compound 223, 5-methoxy-2-[[4-(4-pyridyl)piperazin-1-yl]methyl]-1H-indole], the “COL1 Efficacy (LogEC50)” value was “−”.
